Test system: respiratory epithelial cells

In the case of “IL-13: human IL-13 (Peprotech, Inc.) added to the medium at 50 ng/mL to stimulate respiratory epithelial cells”, the “HLA-F (37421_f_at) expression, fold change upon IL-13 stimulation” value (lot 1, Day 7, IMM method) is reported as 2.1 fold, the “HLA-F (49203_f_at) expression fold change” value (lot 1, Day 7, IMM method) is reported as 2.1 fold and the “HS3ST1 (41556_s_at) expression fold change upon IL-13 stimulation” value (lot 1, Day 7, IMM method) is reported as 3.7 fold. For the same substance, the “HUMRTVLH3 (34702_f_at) expression, fold change upon IL-13 stimulation” value (lot 1, Day 7, IMM method) was 7 fold, the “IFI27 (425_at) expression, fold change upon IL-13 stimulation” value (lot 1, Day 7, IMM method) was 2.8 fold and the “IFI35 (464_s_at) expression, fold change upon IL-13 stimulation” value (lot 1, Day 7, IMM method) was 4.6 fold. The “IFI44 (37641_at) expression, fold change upon IL-13 stimulation” value (lot 1, Day 7, IMM method) was 2.3 fold, the “IFIT1 (915_at) expression, fold change upon IL-13 stimulation” value (lot 1, Day 7, IMM method) was 2.1 fold and the “IFIT4 (38584_at) expression, fold change upon IL-13 stimulation” value (lot 1, Day 7, IMM method) was 3.4 fold. For the same substance, the “IFITM1 (675_at) expression, fold change upon IL-13 stimulation” value (lot 1, Day 7, IMM method) was 8.1 fold, the “IL13RA2 (1016_s_at) expression fold change upon IL-13 stimulation” value (lot 1, Day 7, IMM method) was 5.3 fold and the “IL19 (47855_at) expression fold change” value (lot 1, Day 7, IMM method) was 2.6 fold. For the same substance, the “ISG15 (1107_s_at) expression, fold change upon IL-13 stimulation” value (lot 1, Day 7, IMM method) was 3.8 fold, the “ISG15 (38432_at) expression, fold change upon IL-13 stimulation” value (lot 1, Day 7, IMM method) was 5 fold and the “ISG20 (33304_at) expression, fold change upon IL-13 stimulation” value (lot 1, Day 7, IMM method) was 4.2 fold. For the same substance, the “KIAA0469 (37230_at) expression, fold change upon IL-13 stimulation” value (lot 1, Day 7, IMM method) was 2.4 fold, the “KIAA0537 (33787_at) expression, fold change upon IL-13 stimulation” value (lot 1, Day 7, IMM method) was 3.3 fold and the “KIAA1199 (36070_at) expression, fold change upon IL-13 stimulation” value (lot 1, Day 7, IMM method) was 2.3 fold. The “KIAA1268 (57050_at) expression fold change” value (lot 1, Day 7, IMM method) was 2.4 fold, the “KIAAI268 (59516_at) expression fold change” value (lot 1, Day 7, IMM method) was 4 fold and the “KRT16 (601_s_at) expression fold change” value (lot 1, Day 7, IMM method) was 3.5 fold. For the same substance, the “LOC57118 (51085_at) expression fold change” value (lot 1, Day 7, IMM method) was 5 fold, the “MAT2A (32571_at) expression fold change upon IL-13 stimulation” value (lot 1, Day 7, IMM method) was 2.4 fold and the “MDA5 (51920_at) expression fold change” value (lot 1, Day 7, IMM method) was 2.8 fold. For the same substance, the “MFHAS1 (50388_at) expression fold change” value (lot 1, Day 7, IMM method) was 2.6 fold, the “MMP7 (668_s_at) expression, fold change upon IL-13 stimulation” value (lot 1, Day 7, IMM method) was 2.8 fold and the “MX2 (879_at) expression fold change” value (lot 1, Day 7, IMM method) was 2.4 fold. The “MXI (37014_at) expression fold change” value (lot 1, Day 7, IMM method) was 11.2 fold, the “NK4 (39119_s_at) expression fold change upon IL-13 stimulation” value (lot 1, Day 7, IMM method) was 2.5 fold and the “NOS2A (1948_f_at) expression fold change upon IL-13 stimulation” value (lot 1, Day 7, IMM method) was 2.8 fold. The “NOS2A (48918_at) expression fold change” value (lot 1, Day 7, IMM method) was 2.5 fold, the “NTRK1 (36805_s_at) expression, fold change upon IL-13 stimulation” value (lot 1, Day 7, IMM method) was 6.5 fold and the “OAF (39695_at) expression, fold change upon IL-13 stimulation” value (lot 1, Day 7, IMM method) was 5.1 fold. The “OAS1 (38388_at) expression fold change upon IL-13 stimulation” value (lot 1, Day 7, IMM method) was 3.3 fold, the “OAS1 (38389_at) expression fold change upon IL-13 stimulation” value (lot 1, Day 7, IMM method) was 3.3 fold and the “OSF-2 (1451_s_at) expression fold change upon IL-13 stimulation” value (lot 1, Day 7, IMM method) was 30.6 fold. For the same substance, the “PHKB (46459_at) expression fold change” value (lot 1, Day 7, IMM method) was −2.7 fold, the “PITPNB (35017_f_at) expression, fold change upon IL-13 stimulation” value (lot 1, Day 7, IMM method) was 2.1 fold and the “PLS1 (39951_at) expression fold change” value (lot 1, Day 7, IMM method) was 7.9 fold. The “PSMB9 (38287_at) expression fold change upon IL-13 stimulation” value (lot 1, Day 7, IMM method) was 3.1 fold, the “RASGRP1 (33291_at) expression fold change” value (lot 1, Day 7, IMM method) was 3.3 fold and the “RIG-1 (59215_at) expression fold change” value (lot 1, Day 7, IMM method) was 3.8 fold. The “SECTM1 (41045_at) expression, fold change upon IL-13 stimulation” value (lot 1, Day 7, IMM method) was 14 fold, the “SERPINB2 (37185_at) expression fold change” value (lot 1, Day 7, IMM method) was 3 fold and the “SERPINB4 (1549_s_at) expression fold change” value (lot 1, Day 7, IMM method) was 23.9 fold. The “SIAT1 (41352_at) expression fold change upon IL-13 stimulation” value (lot 1, Day 7, IMM method) was 21.6 fold, the “SLC26A4, pendrin (36376_at) expression fold change” value (lot 1, Day 7, IMM method) was 28.5 fold and the “SSI-1 (41592_at) expression, fold change upon IL-13 stimulation” value (lot 1, Day 7, IMM method) was 8.3 fold. The “STAT1 (33339_g_at) expression fold change” value (lot 1, Day 7, IMM method) was 2.1 fold, the “TSPAN-3 (38612_at) expression, fold change upon IL-13 stimulation” value (lot 1, Day 7, IMM method) was 3.2 fold and the “UFD1L (811_at) expression, fold change upon IL-13 stimulation” value (lot 1, Day 7, IMM method) was 3.8 fold. For the same substance, the “WARS (38121_at) expression fold change upon IL-13 stimulation” value (lot 1, Day 7, IMM method) was 6 fold, the “cig5 (38549_at) expression, fold change upon IL-13 stimulation” value (lot 1, Day 7, IMM method) was 2.2 fold and the “diubiquitin (39959_at) expression, fold change upon IL-13 stimulation” value (lot 1, Day 7, IMM method) was 9.7 fold. For the same substance, the “AA059458 (65626_at) expression change” value (lot 1 Day 3 AI) was −2.3, the “AA151265 (60939_i_at) expression change” value (lot 1 Day 3 AI) was −2.5 and the “AA160156 (47578_at) expression change” value (lot 1 Day 3 AI) was −2.4. For the same substance, the “AA422178 (53747_at) expression change” value (lot 1 Day 3 AI) was −5.3, the “AA456099 (59567_at) expression change” value (lot 1 Day 3 AI) was −2 and the “AA772055 46104_at expression change” value (lot 1 Day 3 AI) was −5.4. For the same substance, the “AF052107 38262_at expression change” value (lot 1 Day 3 AI) was −2.5, the “AI050855 (64285_at) expression change” value (lot 1 Day 3 AI) was −3.6 and the “AI264299 (84903_f_at) expression change” value (lot 1 Day 3 AI) was −3.1. For the same substance, the “AI432375 (49819_at) expression change” value (lot 1 Day 3 AI) was −4.3, the “AI468340 (72604_at) expression change” value (lot 1 Day 3 AI) was −2 and the “AI760772 (58528_s_at) expression change” value (lot 1 Day 3 AI) was −2.3. For the same substance, the “AI829641 (84270_at) expression change” value (lot 1 Day 3 AI) was −5.1, the “AI917602 (49985_at) expression change” value (lot 1 Day 3 AI) was −2.3 and the “AI923984 33546_at expression change” value (lot 1 Day 3 AI) was −3.2. The “AL040936 (45684_at) expression change” value (lot 1 Day 3 AI) was −2.7, the “AQP5 32909_at expression change” value (lot 1 Day 3 AI) was −6.3 and the “ARHGEF4 36524_at expression change” value (lot 1 Day 3 AI) was −3.5. The “ARHV (82231_at) expression change” value (lot 1 Day 3 AI) was −2, the “AW025596 52637_g_at expression change” value (lot 1 Day 3 AI) was −4.8 and the “BARX2 35425_at expression change” value (lot 1 Day 3 AI) was −3.1. For the same substance, the “BPGM (51261_at) expression change” value (lot 1 Day 3 AI) was −4, the “CRABP-II 1057_at expression change” value (lot 1 Day 3 AI) was −4.6 and the “DKFZp434K1210 44682_at expression change” value (lot 1 Day 3 AI) was −4.4. The “DREV1 (63813_at) expression change” value (lot 1 Day 3 AI) was −2, the “DSC3a, b 47119_at expression change” value (lot 1 Day 3 AI) was −2.4 and the “EIF4EBP1 (54152_at) expression change” value (lot 1 Day 3 AI) was −2.2. The “FLJ10298 (62490_f_at) expression change” value (lot 1 Day 3 AI) was −3.7, the “FLJ20048 (49196_at) expression change” value (lot 1 Day 3 AI) was −2.4 and the “FLJ20373 54030_at expression change” value (lot 1 Day 3 AI) was −2.1. The “GABRP 40339_at expression change” value (lot 1 Day 3 AI) was −2.2, the “GJA1 32531_at expression change” value (lot 1 Day 3 AI) was −4.4 and the “GSTA3 58023 at expression change” value (lot 1 Day 3 AI) was −4.6. For the same substance, the “HEY1 44783_s_at expression change” value (lot 1 Day 3 AI) was −6.2, the “HIN-1 (46200_at) expression change” value (lot 1 Day 3 AI) was −5.4 and the “HSPC195 44705_at expression change” value (lot 1 Day 3 AI) was −2.5. For the same substance, the “IVL 36355_at expression change” value (lot 1 Day 3 AI) was −6.8, the “K1IAA1102 (64345_s_at) expression change” value (lot 1 Day 3 AI) was −2.7 and the “KLF7 34216_at expression change” value (lot 1 Day 3 AI) was −2.5. For the same substance, the “KLF7 (42769_at) expression change” value (lot 1 Day 3 AI) was −3.2, the “KRT6B (62998_at) expression change” value (lot 1 Day 3 AI) was −3.4 and the “KRT15 37582_at expression change” value (lot 1 Day 3 AI) was −5.2. The “LOC51297 (49616_at) expression change” value (lot 1 Day 3 AI) was −9.1, the “LOC51297 (55440_at) expression change” value (lot 1 Day 3 AI) was −57.3 and the “LOC51297 (55442_g_at) expression change” value (lot 1 Day 3 AI) was −14. The “LOC51316 (63342_at) expression change” value (lot 1 Day 3 AI) was −2, the “LOC129642 (58288_at) expression change” value (lot 1 Day 3 AI) was −2.8 and the “LOC131177 (43849_s_at) expression change” value (lot 1 Day 3 AI) was −5.2. The “LOC131177 (45394_s_at) expression change” value (lot 1 Day 3 AI) was −4.4, the “MGC13102 (54791_at) expression change” value (lot 1 Day 3 AI) was −6.5 and the “MGC14128 55924_at expression change” value (lot 1 Day 3 AI) was −2.6. The “MGC14128 (51669_r_at) expression change” value (lot 1 Day 3 AI) was −2.8.

Reference: patent publication US20050208496A1, “Methods of testing for bronchial asthma or chronic obstructive pulmonary disease” (Genox Research, Inc., priority 2002, published 2005)
